Affinity data for one compound are collected here from ChEMBL document CHEMBL1141172, “Fragment-based lead discovery using X-ray crystallography” (J Med Chem, 2005).

In this experiment the target is T1, Tyrosine-protein phosphatase non-receptor type 1 (Homo sapiens) (UniProt P18031).
T1 sequence (whole entry): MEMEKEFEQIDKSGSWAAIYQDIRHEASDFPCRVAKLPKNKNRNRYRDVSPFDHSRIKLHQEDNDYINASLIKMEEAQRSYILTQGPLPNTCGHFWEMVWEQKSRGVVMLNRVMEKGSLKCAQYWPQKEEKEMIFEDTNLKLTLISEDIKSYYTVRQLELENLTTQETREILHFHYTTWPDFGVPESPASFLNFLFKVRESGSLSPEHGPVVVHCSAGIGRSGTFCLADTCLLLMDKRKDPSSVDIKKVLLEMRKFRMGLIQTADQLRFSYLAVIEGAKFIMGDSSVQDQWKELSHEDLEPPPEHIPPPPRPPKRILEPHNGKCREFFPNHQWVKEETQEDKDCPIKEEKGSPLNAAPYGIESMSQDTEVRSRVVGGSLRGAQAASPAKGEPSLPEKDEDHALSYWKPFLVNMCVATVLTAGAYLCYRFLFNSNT
In words: Binding affinity for protein tyrosine phosphatase 1B.

SMILES strings stand for the structures.

In the case of `NCc1ccc(NC(=O)C(=O)O)cc1`, the Affinity was found to be 86 µM.
